Source: ChEMBL document CHEMBL3588788, “Structure-activity relationship of hybrids of Cinchona alkaloids and bile acids with in vitro antiplasmodial and antitrypanosomal activities” (Eur J Med Chem, 2015)

What was measured:
Plasmodium falciparum [1] = test: Potency index, ratio of IC50 for QN to IC50 for test compound against Plasmodium falciparum 3D7 by parasite lactate dehydrogenase assay; assay type: functional
[2] = Selectivity index, ratio of IC50 against human WI38 cells to IC50 for Plasmodium falciparum 3D7; assay type: toxicity, cell-based, WI-38; settings: read-out: Ratio IC50
[3] = tested on: Trypanosoma brucei brucei; test: Potency index, ratio of IC50 for QN to IC50 for test compound against Trypanosoma brucei brucei Lister 427 bloodstream forms by microtiter plate based assay; assay type: functional
in vitro = settings: human, WI38 cells
Description: Selectivity index, ratio of IC50 against human WI38 cells to IC50 for Trypanosoma brucei brucei Lister 427 bloodstream forms

[4] = tested on: Trypanosoma brucei brucei; test: Antitrypanosomal activity against Trypanosoma brucei brucei Lister 427 bloodstream forms by microtiter plate based assay; assay type: functional, organism-based
[5] = Cytotoxicity against human WI38 cells by MTT assay; assay type: cell-based, WI-38
Plasmodium falciparum [6] = test: Antiplasmodial activity against Plasmodium falciparum 3D7 assessed as reduction in parasite viability by parasite lactate dehydrogenase assay; assay type: functional, organism-based
[7] = tested on: Trypanosoma brucei brucei; test: Antitrypanosomal activity against Trypanosoma brucei brucei Lister 427 bloodstream forms assessed as inhibition of parasite growth at 20 ug/ml by microtiter plate based assay; assay type: functional
[8] = tested on: Trypanosoma brucei brucei; test: Antitrypanosomal activity against Trypanosoma brucei brucei Lister 427 bloodstream forms assessed as inhibition of parasite growth at 100 ug/ml by microtiter plate based assay; assay type: functional
[9] = Cytotoxicity against human WI38 cells assessed as inhibition of cell growth at 20 ug/ml by MTT assay; assay type: cell-based, WI-38
Plasmodium falciparum [10] = test: Antiplasmodial activity against Plasmodium falciparum 3D7 assessed as inhibition of parasite viability at 100 ug/ml by parasite lactate dehydrogenase assay; assay type: functional
[11] = Cytotoxicity against human WI38 cells assessed as inhibition of cell growth at 100 ug/ml by MTT assay; assay type: cell-based, WI-38
Plasmodium falciparum [12] = test: Antiplasmodial activity against Plasmodium falciparum 3D7 assessed as inhibition of parasite viability at 20 ug/ml by parasite lactate dehydrogenase assay; assay type: functional
[13] = Homo sapiens, WI-38, read-out: IC50

SMILES | IC50 [5, 13] [µM] | IC50 (Plasmodium falciparum [6]) [µM] | inhibition at 20 µg/mL [7] [%] | inhibition at 100 µg/mL [8] [%] | inhibition at 20 ug/ml [9] [%] | inhibition at 100 µg/mL (Plasmodium falciparum [10]) [%] | inhibition at 100 ug/ml [11] [%] | inhibition at 20 µg/mL (Plasmodium falciparum [12]) [%] | further results
C=C[C@H]1CN2CC[C@H]1C[C@H]2[C@H](O)c1cc(CC[C@@H](C)[C@H]2CC[C@H]3[C@@H]4[C@H](O)C[C@@H]5C[C@H](O)CC[C@]5(C)[C@H]4C[C@H](O)[C@]23C)nc2ccc(OC)cc12 | 19.3 | 1.82 | – | – | – | – | – | – | Ratio IC50 (Plasmodium falciparum [1]): 0.3; selectivity ratio [2]: 11; Ratio IC50 [3]: 13.5; selectivity ratio (in vitro): 12.3; IC50 [4]: 1.57 µM
C[C@@H]1CC[C@H]2[C@@H](C)C(=O)O[C@@H]3O[C@@]4(C)CC[C@@H]1[C@]32OO4 [ARTEMISININ] | – | 0.0362 | – | – | – | – | – | – | IC50 ([5]; wi-38): Not Active
CC[C@@]1(O)C(=O)OCc2c1cc1n(c2=O)Cc2cc3ccccc3nc2-1 [CAMPTOTHECIN] | 0.23 | – | – | – | – | – | – | – | –
C[C@H](CCC(=O)O)[C@H]1CC[C@H]2[C@@H]3[C@H](O)C[C@@H]4C[C@H](O)CC[C@]4(C)[C@H]3CC[C@]12C [CHENODIOL] | – | 18.9 | 11 | 100 | 27 | 98 | 94 | 77 | –
C[C@H](CCC(=O)O)[C@H]1CC[C@H]2[C@@H]3[C@H](O)C[C@@H]4C[C@H](O)CC[C@]4(C)[C@H]3C[C@H](O)[C@]12C [CHOLIC ACID] | – | 133 | 20 | 24 | 6 | 83 | – | 56 | –
C=C[C@H]1CN2CC[C@H]1C[C@H]2[C@H](O)c1ccnc2ccccc12 [CINCHONIDINE] | > 68 | 0.963 | – | – | – | – | – | – | selectivity ratio [2]: > 71
C=C[C@H]1CN2CC[C@H]1C[C@@H]2[C@@H](O)c1ccnc2ccccc12 [CINCHONINE] | > 68 | 0.292 | – | – | – | – | – | – | selectivity ratio [2]: > 222; IC50 [4]: > 68 µM
C[C@H](CCC(=O)O)[C@H]1CC[C@H]2[C@@H]3CC[C@@H]4C[C@H](O)CC[C@]4(C)[C@H]3C[C@H](O)[C@]12C [DEOXYCHOLIC ACID] | – | 93.6 | 2 | 100 | 9 | 100 | 50 | 59 | –
C[C@H](CCC(=O)O)[C@H]1CC[C@H]2[C@@H]3[C@H](O)[C@H](O)[C@@H]4C[C@H](O)CC[C@]4(C)[C@H]3CC[C@]12C [HYOCHOLIC ACID] | – | 109 | 7 | 64 | 18 | 92 | – | 54 | –
C[C@H](CCC(=O)O)[C@H]1CC[C@H]2[C@@H]3C[C@H](O)[C@@H]4C[C@H](O)CC[C@]4(C)[C@H]3CC[C@]12C [HYODEOXYCHOLIC_ACID] | – | 40.9 | 1 | 94 | 21 | 97 | 22 | 67 | –
C[C@H](CCC(=O)O)[C@H]1CC[C@H]2[C@@H]3CC[C@@H]4C[C@H](O)CC[C@]4(C)[C@H]3CC[C@]12C [LITHOCHOLIC ACID] | – | 26.9 | 5 | 100 | 22 | 100 | 98 | 85 | –
C=C[C@H]1CN2CC[C@H]1C[C@@H]2[C@@H](O)c1ccnc2ccc(OC)cc12 [QUINIDINE] | 34.8 | 0.194 | – | – | – | – | – | – | –
C=C[C@H]1CN2CC[C@H]1C[C@H]2[C@H](O)c1ccnc2ccc(OC)cc12 [QUININE] | 20.2 | 0.633 | – | – | – | – | – | – | selectivity ratio (in vitro): 1
